# Measurements as given in US20220313662A1, “SUCCINATE DEHYDROGENASE INHIBITORS FOR BREAKING DORMANCY” (Valent BioSciences LLC, priority 2021, published 2022).
# Experiments:
# Assay type in all cases: in vivo
# Concord grape vines [1] = experiment: Example 1: bud break and shoot weight of potted Concord grape vines in a greenhouse
# Protocol: To assess the ability of SDHIs to promote and synchronize bud break and increase shoot weight, SDHIs were applied to shoots of potted 1 year old Concord grape vines grown in a greenhouse and examined for bud break (initiation of growth). Hydrogen cyanamide, malonate (malonic acid), inpyrfluxam, penthiopyrad and pydiflumetofen were each applied individually to the shoots of five potted concord grape rootstocks that were pruned to 5 nodes. Plants were evaluated for bud break periodically starting at 5 days after treatment. Plants were evaluated for shoot weight at 41 days after treatment.
# Concord grape vines [2] = experiment: Example 2: bud break and shoot weight of potted Concord grape vines, single SDHIs and mixtures (OCE/ECE, Abbott method); conditions: for Shoot Weight: 41 days after treatment
# Protocol: To assess the ability of SDHIs to promote and synchronize bud break and increase shoot weight, SDHIs were applied to shoots of 1 year old potted Concord grape vines grown in a greenhouse and examined for bud break (initiation of growth). Hydrogen cyanamide, malonate (malonic acid), inpyrfluxam, and mixtures of malonate and inpyrfluxam were each applied to the shoots of five potted concord grape rootstocks that were pruned to 5 nodes. Plants were evaluated for bud break periodically starting at 5 days after treatment. Plants were evaluated for shoot weight at 41 days after treatment.
# To determine if the mixtures provided unexpected results, the observed combined efficacy (“OCE”) was divided by the expected combined efficacy (“ECE”) to give an OCE/ECE ratio wherein the expected ECE is calculated by the Abbott method: […]
# wherein ECE is the expected combined efficacy and in which A and B are the efficacy provided by the single active ingredients. If the ratio between the OCE of the mixture and the ECE of the mixture is greater than 1, then greater than expected interactions are present in the mixture. (Gisi, The American Phytopathological Society, 86:11, 1273-1279, 1996).
# Thompson seedless grapes [3] = experiment: Example 3: field trial, bud break and shoot growth of Thompson seedless grapes; set-up: Shoot Growth: unit not given beside the values; conditions: for Shoot Growth: equals sum of the three length classes
# Thompson seedless grapes [4] = experiment: as above; conditions: 486 ppm
# Protocol: Thompson seedless grapes were grown in the field in Kanoneiland, Northern Cape, South Africa during the 2021 growing season. Hydrogen cyanamide, malonate (malonic acid), and inpyrfluxam were each applied to the shoots of grape plants at 2 or 4 weeks before natural bud break. Plants were evaluated for bud break at 7 and 21 days after 1st bud break.
# [5] = 2% v/v, 4 weeks before natural bud break
# [6] = 2% v/v, applied 4 weeks before natural bud break
# [7] = applied 2 weeks before natural bud break
# [8] = 486 ppm (Table 4), 2 weeks before natural bud break
# [9] = 486 ppm, 2 weeks before natural bud break
# [10] = 486 ppm, 4 weeks before natural bud break
compound,measurement,setting,value
"N#CN [Hydrogen cyanamide, hydrogen cyanamide]",Days to 50% BB,Concord grape vines [1]; applied at 2% v/v to shoots,12 days
same,Days to 100% BB,Concord grape vines [1]; applied at 2% v/v to shoots,17 days
same,Shoot Weight,"Concord grape vines [1]; applied at 2% v/v, 41 days after treatment",27.4 g
same,effect on the number of days to 50% bud break (in words),"Concord grape vines [1]; rates of Table 1, hydrogen cyanamide 2% v/v",no effect
same,Days to 50% BB,Concord grape vines [2]; applied at 2% v/v to shoots,18 days
same,Days to 100% BB,Concord grape vines [2]; applied at 2% v/v to shoots,16 days
same,Shoot Weight,Concord grape vines [2]; applied at 2% v/v,8.9 g
same,Shoot Growth (%) 1-5 cm,Thompson seedless grapes [3]; [5],21.7%
same,Shoot Growth (%) 5-10 cm,Thompson seedless grapes [3]; [5],16.1%
same,Shoot Growth (%) >10 cm,Thompson seedless grapes [3]; [5],29.3 c %
same,Shoot Growth,Thompson seedless grapes [3]; [5],67.2
same,Bud Break % at 7 days after 1st bud break,Thompson seedless grapes [3]; [6],63.2 b %
same,Bud Break % at 21 days after 1st bud break,Thompson seedless grapes [3]; [6],81.3 bcd %
"CC1CC(C)(C)c2c(F)ccc(NC(=O)c3cn(C)nc3C(F)F)c21 (centres unmarked) [Inpyrfluxam, inpyrfluxam]","shoot weight, more than control","Concord grape vines [1]; 486 ppm (Table 1), 41 days after treatment",44%
same,Days to 50% BB,Concord grape vines [1]; applied at 486 ppm to shoots,9 days
same,Days to 100% BB,Concord grape vines [1]; applied at 486 ppm to shoots,17 days
same,Shoot Weight,"Concord grape vines [1]; applied at 486 ppm, 41 days after treatment",47 g
same,"time to 50% bud break, faster than control","Concord grape vines [1]; rates of Table 1: malonate 3,000 and 10,000 ppm, penthiopyrad 1,428 ppm, inpyrfluxam 486 ppm, pydiflumetofen 968 ppm",about 25%
same,"time to 50% bud break, faster than control",Concord grape vines [2]; 486 ppm,about 12%
same,"time to 100% bud break, faster than control",Concord grape vines [2]; 486 ppm,19%
same,"time to 100% bud break, faster than control",Concord grape vines [2]; 972 ppm,38%
same,Days to 50% BB,Concord grape vines [2]; applied at 97.2 ppm to shoots,27 days
same,Days to 100% BB,Concord grape vines [2]; applied at 97.2 ppm to shoots,17 days
same,Shoot Weight,Concord grape vines [2]; applied at 97.2 ppm,9.1 g
same,Days to 50% BB,Concord grape vines [2]; applied at 194.4 ppm to shoots,29 days
same,Days to 100% BB,Concord grape vines [2]; applied at 194.4 ppm to shoots,28 days
same,Shoot Weight,Concord grape vines [2]; applied at 194.4 ppm,5.4 g
same,Days to 50% BB,Concord grape vines [2]; applied at 486 ppm to shoots,22 days
same,Days to 100% BB,Concord grape vines [2]; applied at 486 ppm to shoots,13 days
same,Shoot Weight,Concord grape vines [2]; applied at 486 ppm,7.6 g
same,Days to 50% BB,Concord grape vines [2]; applied at 972 ppm to shoots,27 days
same,Days to 100% BB,Concord grape vines [2]; applied at 972 ppm to shoots,10 days
same,Shoot Weight,Concord grape vines [2]; applied at 972 ppm,6.2 g
same,Bud Break % at 7 days after 1st bud break,Thompson seedless grapes [4]; [7],29.7 a %
same,Bud Break % at 21 days after 1st bud break,Thompson seedless grapes [4]; [7],100 f %
same,Bud Break % at 21 days after 1st bud break,"Thompson seedless grapes [4]; applied 2 weeks before natural bud break, listed as inpyrfluxam",statistically significant increase over control
same,Bud Break % at 7 days after 1st bud break,Thompson seedless grapes [4]; applied 4 weeks before natural bud break,36.8 a %
same,increase in shoot growth over Dormex,Thompson seedless grapes [3]; [8],15%
same,increase in shoot growth over control,Thompson seedless grapes [3]; [8],50%
same,increase in shoot growth over control,"Thompson seedless grapes [3]; 486 ppm (Table 4), 4 weeks before natural bud break",27%
same,Shoot Growth (%) 1-5 cm,Thompson seedless grapes [3]; [9],27.7%
same,Shoot Growth (%) 5-10 cm,Thompson seedless grapes [3]; [9],21.1%
same,Shoot Growth (%) >10 cm,Thompson seedless grapes [3]; [9],28.8 c %
same,Shoot Growth,Thompson seedless grapes [3]; [9],77.6
same,Shoot Growth (%) 1-5 cm,Thompson seedless grapes [3]; [10],25.9%
same,Shoot Growth (%) 5-10 cm,Thompson seedless grapes [3]; [10],20.3%
same,Shoot Growth (%) >10 cm,Thompson seedless grapes [3]; [10],19.7 b %
same,Shoot Growth,Thompson seedless grapes [3]; [10],65.8
same,Bud Break % at 21 days after 1st bud break,"Thompson seedless grapes [3]; 486 ppm, applied 4 weeks before natural bud break",90.3 def %
same,Bud Break % at 21 days after 1st bud break,"Thompson seedless grapes [3]; 486 ppm, applied 4 weeks before natural bud break, listed as inpyrfluxam",statistically significant increase over control
